Results from ChEMBL document CHEMBL1773059, “NMS-P937, a 4,5-dihydro-1H-pyrazolo[4,3-h]quinazoline derivative as potent and selective Polo-like kinase 1 inhibitor” (Bioorg Med Chem Lett, 2011).

Experiments:
[1] = biological target: Serine/threonine-protein kinase tousled-like 2 (Homo sapiens, UniProt Q86UE8); test: Inhibition of TLK2 assessed as [33P]gamma-ATP incorporation into substrate after 60 mins by gamma counting
[2] = biological target: Vascular endothelial growth factor receptor 2 (Homo sapiens, UniProt P35968); test: Inhibition of VEGFR2 assessed as [33P]gamma-ATP incorporation into substrate after 60 mins by gamma counting
[3] = biological target: Vascular endothelial growth factor receptor 3 (Homo sapiens, UniProt P35916); test: Inhibition of VEGFR3 assessed as [33P]gamma-ATP incorporation into substrate after 60 mins by gamma counting
[4] = biological target: Tyrosine-protein kinase ZAP-70 (Homo sapiens, UniProt P43403); test: Inhibition of ZAP70 assessed as [33P]gamma-ATP incorporation into substrate after 60 mins by gamma counting
Mus musculus [5] = test: Toxicity in CD1 nu/nu mouse xenografted with human HCT116 cells assessed as mortality at 90 mg/kg, po BID administered on days 1 to 2 in weekly scheduling for 4 cycles; type: organism-based, HCT-116; set-up: dose 90 mg/kg, route oral; conditions: in vivo
Mus musculus [6] = test: Toxicity in CD1 nu/nu mouse xenografted with human HCT116 cells assessed as mortality at 120 mg/kg, po BID administered on days 1 to 2 in weekly scheduling for 4 cycles; type: organism-based, HCT-116; set-up: dose 120 mg/kg, route oral; conditions: in vivo
[7] = biological target: Serine/threonine-protein kinase Nek6 (Homo sapiens, UniProt Q9HC98); test: Inhibition of NEK6 assessed as [33P]gamma-ATP incorporation into substrate after 60 mins by gamma counting
[8] = biological target: Serine/threonine-protein kinase PAK 4 (Homo sapiens, UniProt O96013); test: Inhibition of PAK4 assessed as [33P]gamma-ATP incorporation into substrate after 60 mins by gamma counting
Focal adhesion kinase 1 = Focal adhesion kinase 1 (Homo sapiens, UniProt Q05397); test: Inhibition of FAK assessed as [33P]gamma-ATP incorporation into substrate after 60 mins by gamma counting
[9] = biological target: Fibroblast growth factor receptor 1 (Homo sapiens, UniProt P11362); test: Inhibition of FGFR1 assessed as [33P]gamma-ATP incorporation into substrate after 60 mins by gamma counting
[10] = biological target: Glycogen synthase kinase-3 beta (Homo sapiens, UniProt P49841); test: Inhibition of GSK3-beta assessed as [33P]gamma-ATP incorporation into substrate after 60 mins by gamma counting
[11] = biological target: Inhibitor of nuclear factor kappa-B kinase subunit beta (Homo sapiens, UniProt O14920); test: Inhibition of IKK2 assessed as [33P]gamma-ATP incorporation into substrate after 60 mins by gamma counting
[12] = biological target: Tyrosine-protein kinase JAK1 (Homo sapiens, UniProt P23458); test: Inhibition of JAK1 assessed as [33P]gamma-ATP incorporation into substrate after 60 mins by gamma counting
[13] = biological target: Tyrosine-protein kinase JAK3 (Homo sapiens, UniProt P52333); test: Inhibition of JAK3 assessed as [33P]gamma-ATP incorporation into substrate after 60 mins by gamma counting
[14] = biological target: Tyrosine-protein kinase Lyn (Homo sapiens, UniProt P07948); test: Inhibition of LYN assessed as [33P]gamma-ATP incorporation into substrate after 60 mins by gamma counting
[15] = biological target: MAP kinase-activated protein kinase 2 (Homo sapiens, UniProt P49137); test: Inhibition of MAPKAPK2 assessed as [33P]gamma-ATP incorporation into substrate after 60 mins by gamma counting
[16] = biological target: Serine/threonine-protein kinase pim-2 (Homo sapiens, UniProt Q9P1W9); test: Inhibition of PIM2 assessed as [33P]gamma-ATP incorporation into substrate after 60 mins by gamma counting
[17] = biological target: Proto-oncogene tyrosine-protein kinase ROS (Homo sapiens, UniProt P08922); test: Inhibition of ROS1 assessed as [33P]gamma-ATP incorporation into substrate after 60 mins by gamma counting
[18] = Inhibition of SULU1 assessed as [33P]gamma-ATP incorporation into substrate after 60 mins by gamma counting
HCT-116 [19] = test: Antitumor activity against human HCT116 cells xenografted in CD1 nu/nu mouse assessed as tumor growth inhibition at 60 mg/kg, po administered once daily for 1 to 10 days measured on day 23; type: functional; conditions: read-out: TGI
[20] = Inhibition of CK2 assessed as [33P]gamma-ATP incorporation into substrate after 60 mins by gamma counting
Activated CDC42 kinase 1 = Activated CDC42 kinase 1 (Homo sapiens, UniProt Q07912); test: Inhibition of ACK1 assessed as [33P]gamma-ATP incorporation into substrate after 60 mins by gamma counting
[21] = biological target: Mitotic checkpoint serine/threonine-protein kinase BUB1 (Homo sapiens, UniProt O43683); test: Inhibition of BUB1 assessed as [33P]gamma-ATP incorporation into substrate after 60 mins by gamma counting
[22] = biological target: Eukaryotic elongation factor 2 kinase (Homo sapiens, UniProt O00418); test: Inhibition of EEF2K assessed as [33P]gamma-ATP incorporation into substrate after 60 mins by gamma counting
[23] = biological target: Epidermal growth factor receptor (Homo sapiens, UniProt P04626+P00533+Q15303+P21860); test: Inhibition of EGFR1 assessed as [33P]gamma-ATP incorporation into substrate after 60 mins by gamma counting; type: protein assay
Caco-2 = test: Apparent permeability of the compound across human Caco2 cells; type: ADME, cell-based
HCT-116 [24] = test: Antitumor activity against human HCT116 cells xenografted in CD1 nu/nu mouse assessed as tumor growth inhibition at 45 mg/kg, iv BID administered on days 1 to 3 in weekly scheduling for 2 cycles measured on day 24; type: functional; conditions: HCT-116, 576 h, read-out: TGI
Mus musculus [25] = test: Toxicity in CD1 nu/nu mouse xenografted with human HCT116 cells assessed as reversible body weight loss at 45 mg/kg, iv BID administered on days 1 to 3 in weekly scheduling for 2 cycles measured on day 15; type: organism-based, HCT-116; set-up: dose 45 mg/kg, route intravenous; conditions: in vivo
Mus musculus [26] = test: Toxicity in CD1 nu/nu mouse xenografted with human HCT116 cells assessed as reversible body weight loss at 120 mg/kg, po once daily administered on days 1 to 2 in weekly scheduling for 4 cycles measured on day 29; conditions: in vivo

Chain of Serine/threonine-protein kinase pim-2 (Q9P1W9 whole entry): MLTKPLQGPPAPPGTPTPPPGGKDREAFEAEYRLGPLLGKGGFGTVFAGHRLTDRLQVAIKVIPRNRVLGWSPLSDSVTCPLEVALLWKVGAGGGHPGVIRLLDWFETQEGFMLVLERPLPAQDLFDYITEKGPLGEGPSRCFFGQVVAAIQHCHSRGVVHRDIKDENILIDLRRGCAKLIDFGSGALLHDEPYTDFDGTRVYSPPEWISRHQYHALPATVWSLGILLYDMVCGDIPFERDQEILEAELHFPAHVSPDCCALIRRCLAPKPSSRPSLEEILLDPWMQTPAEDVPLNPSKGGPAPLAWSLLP
Chain of Mitotic checkpoint serine/threonine-protein kinase BUB1 (O43683 whole entry): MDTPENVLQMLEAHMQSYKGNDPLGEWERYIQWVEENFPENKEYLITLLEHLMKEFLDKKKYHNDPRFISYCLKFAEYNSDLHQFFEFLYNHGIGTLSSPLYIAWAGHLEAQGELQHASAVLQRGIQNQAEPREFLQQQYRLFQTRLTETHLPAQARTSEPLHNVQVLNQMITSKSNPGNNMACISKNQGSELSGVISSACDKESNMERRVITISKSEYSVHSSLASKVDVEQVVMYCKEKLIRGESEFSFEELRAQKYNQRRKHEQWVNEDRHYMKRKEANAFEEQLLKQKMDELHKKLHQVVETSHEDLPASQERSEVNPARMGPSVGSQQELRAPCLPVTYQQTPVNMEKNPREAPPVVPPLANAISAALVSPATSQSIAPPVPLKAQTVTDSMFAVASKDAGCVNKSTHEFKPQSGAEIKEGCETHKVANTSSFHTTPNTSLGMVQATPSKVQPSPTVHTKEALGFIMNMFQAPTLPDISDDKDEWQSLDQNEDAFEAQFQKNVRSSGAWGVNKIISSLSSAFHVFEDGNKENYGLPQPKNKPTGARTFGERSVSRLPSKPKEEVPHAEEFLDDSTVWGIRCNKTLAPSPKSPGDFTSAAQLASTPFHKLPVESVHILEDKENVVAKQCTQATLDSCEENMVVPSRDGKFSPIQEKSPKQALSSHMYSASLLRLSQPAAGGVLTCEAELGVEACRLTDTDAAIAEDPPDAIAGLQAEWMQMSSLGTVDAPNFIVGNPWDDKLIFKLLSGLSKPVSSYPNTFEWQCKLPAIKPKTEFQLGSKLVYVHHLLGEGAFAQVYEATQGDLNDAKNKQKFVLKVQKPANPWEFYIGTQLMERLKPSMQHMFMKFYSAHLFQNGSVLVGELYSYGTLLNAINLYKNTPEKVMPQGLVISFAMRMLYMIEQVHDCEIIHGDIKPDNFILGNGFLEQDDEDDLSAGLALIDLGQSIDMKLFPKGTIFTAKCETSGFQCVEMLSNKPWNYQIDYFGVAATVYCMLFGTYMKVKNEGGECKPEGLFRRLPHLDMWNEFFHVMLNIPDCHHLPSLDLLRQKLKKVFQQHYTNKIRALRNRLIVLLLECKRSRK
Chain of Glycogen synthase kinase-3 beta (P49841 whole entry): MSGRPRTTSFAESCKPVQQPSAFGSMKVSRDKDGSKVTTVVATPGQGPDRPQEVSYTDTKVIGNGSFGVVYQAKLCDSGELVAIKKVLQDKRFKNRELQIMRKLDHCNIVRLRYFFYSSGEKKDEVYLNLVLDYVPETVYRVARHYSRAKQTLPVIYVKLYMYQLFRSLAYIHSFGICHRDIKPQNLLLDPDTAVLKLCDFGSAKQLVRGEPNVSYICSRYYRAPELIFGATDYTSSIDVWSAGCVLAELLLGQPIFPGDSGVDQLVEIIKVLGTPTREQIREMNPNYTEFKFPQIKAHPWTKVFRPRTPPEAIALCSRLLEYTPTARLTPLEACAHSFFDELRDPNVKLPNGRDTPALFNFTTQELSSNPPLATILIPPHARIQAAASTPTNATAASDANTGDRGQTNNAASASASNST
Chain of Serine/threonine-protein kinase Nek6 (Q9HC98 whole entry): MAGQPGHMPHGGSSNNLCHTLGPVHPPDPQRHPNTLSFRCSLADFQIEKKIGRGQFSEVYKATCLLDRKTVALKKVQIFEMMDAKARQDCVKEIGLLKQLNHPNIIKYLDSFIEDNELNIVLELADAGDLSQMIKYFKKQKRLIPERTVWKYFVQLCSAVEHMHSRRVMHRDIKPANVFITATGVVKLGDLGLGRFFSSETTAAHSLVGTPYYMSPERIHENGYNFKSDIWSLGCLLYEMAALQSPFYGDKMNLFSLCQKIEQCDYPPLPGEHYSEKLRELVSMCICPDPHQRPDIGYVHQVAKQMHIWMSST
Chain of Fibroblast growth factor receptor 1 (P11362 whole entry): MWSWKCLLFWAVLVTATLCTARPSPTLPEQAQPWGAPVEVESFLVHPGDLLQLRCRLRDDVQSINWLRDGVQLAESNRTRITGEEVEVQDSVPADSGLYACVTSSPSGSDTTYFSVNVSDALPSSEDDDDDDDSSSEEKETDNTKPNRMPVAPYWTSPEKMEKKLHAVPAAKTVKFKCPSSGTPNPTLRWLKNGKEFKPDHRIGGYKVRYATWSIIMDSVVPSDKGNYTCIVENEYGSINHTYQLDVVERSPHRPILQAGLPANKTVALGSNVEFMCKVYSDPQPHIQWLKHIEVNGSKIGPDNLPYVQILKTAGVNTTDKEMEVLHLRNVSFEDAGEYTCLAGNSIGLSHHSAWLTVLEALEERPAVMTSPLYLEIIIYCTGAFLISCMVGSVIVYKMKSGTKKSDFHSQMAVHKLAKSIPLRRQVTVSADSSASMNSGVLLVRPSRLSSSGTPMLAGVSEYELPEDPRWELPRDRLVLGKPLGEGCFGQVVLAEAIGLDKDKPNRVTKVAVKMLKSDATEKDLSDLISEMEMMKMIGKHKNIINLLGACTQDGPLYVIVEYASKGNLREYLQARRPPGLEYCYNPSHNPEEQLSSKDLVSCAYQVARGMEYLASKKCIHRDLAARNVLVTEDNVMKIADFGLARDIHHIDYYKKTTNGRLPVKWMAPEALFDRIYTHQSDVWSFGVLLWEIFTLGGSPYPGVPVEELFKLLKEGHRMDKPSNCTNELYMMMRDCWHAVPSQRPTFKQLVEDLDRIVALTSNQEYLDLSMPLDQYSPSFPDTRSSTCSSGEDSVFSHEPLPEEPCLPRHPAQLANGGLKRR
Chain of Tyrosine-protein kinase Lyn (P07948 whole entry): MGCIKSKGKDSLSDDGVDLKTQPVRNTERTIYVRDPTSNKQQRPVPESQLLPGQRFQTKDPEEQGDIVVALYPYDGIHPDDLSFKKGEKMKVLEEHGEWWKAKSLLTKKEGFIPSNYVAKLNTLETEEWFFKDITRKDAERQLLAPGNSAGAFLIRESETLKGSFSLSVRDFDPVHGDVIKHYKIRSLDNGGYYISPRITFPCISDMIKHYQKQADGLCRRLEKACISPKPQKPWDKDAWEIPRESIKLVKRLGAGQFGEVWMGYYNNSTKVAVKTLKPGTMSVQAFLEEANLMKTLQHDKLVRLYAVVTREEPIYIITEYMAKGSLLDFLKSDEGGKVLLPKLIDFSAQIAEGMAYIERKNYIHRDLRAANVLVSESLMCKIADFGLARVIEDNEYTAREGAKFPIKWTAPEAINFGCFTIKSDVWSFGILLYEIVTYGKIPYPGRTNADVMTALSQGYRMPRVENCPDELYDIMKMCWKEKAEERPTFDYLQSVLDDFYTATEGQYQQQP
Chain of Tyrosine-protein kinase JAK3 (P52333 whole entry): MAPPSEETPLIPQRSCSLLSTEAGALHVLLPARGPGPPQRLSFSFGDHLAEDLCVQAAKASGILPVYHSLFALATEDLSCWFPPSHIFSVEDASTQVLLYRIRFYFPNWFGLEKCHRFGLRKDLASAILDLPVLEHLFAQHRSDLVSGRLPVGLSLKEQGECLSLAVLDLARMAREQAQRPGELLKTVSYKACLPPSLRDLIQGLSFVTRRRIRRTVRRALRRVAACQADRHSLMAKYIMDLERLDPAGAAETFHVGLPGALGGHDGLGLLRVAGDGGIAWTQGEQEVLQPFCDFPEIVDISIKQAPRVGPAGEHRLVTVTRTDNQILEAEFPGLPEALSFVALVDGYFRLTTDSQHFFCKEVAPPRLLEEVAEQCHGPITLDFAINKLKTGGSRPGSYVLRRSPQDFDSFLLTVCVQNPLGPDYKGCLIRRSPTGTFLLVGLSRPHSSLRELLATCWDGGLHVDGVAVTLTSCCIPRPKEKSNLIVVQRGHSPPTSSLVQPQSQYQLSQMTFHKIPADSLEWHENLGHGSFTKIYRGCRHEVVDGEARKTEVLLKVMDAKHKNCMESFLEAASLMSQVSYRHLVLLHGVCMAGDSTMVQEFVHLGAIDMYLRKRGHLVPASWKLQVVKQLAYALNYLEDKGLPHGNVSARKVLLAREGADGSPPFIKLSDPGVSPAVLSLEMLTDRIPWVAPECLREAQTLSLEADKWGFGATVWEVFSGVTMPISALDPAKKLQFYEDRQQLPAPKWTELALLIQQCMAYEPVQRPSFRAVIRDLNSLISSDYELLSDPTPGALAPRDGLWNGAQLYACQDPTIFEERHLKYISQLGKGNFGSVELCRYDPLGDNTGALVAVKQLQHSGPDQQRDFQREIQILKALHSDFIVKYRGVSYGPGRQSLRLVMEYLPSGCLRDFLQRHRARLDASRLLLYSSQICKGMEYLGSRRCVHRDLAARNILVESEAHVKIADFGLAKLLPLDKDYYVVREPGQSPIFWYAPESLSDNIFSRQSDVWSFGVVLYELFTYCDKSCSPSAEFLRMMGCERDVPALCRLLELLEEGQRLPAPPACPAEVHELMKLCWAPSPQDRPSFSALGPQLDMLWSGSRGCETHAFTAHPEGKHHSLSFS
Chain of MAP kinase-activated protein kinase 2 (P49137 whole entry): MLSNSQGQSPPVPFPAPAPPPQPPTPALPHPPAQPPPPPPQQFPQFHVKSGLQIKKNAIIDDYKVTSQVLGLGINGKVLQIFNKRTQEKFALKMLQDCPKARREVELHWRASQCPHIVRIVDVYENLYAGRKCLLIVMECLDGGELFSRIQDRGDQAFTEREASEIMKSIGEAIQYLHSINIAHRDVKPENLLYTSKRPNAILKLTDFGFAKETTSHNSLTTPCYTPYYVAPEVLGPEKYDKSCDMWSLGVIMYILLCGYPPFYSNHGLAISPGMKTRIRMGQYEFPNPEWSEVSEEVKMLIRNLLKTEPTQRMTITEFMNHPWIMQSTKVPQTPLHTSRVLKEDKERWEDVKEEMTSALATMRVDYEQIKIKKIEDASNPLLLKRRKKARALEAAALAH

SMILES: CN1CCN(c2ccc(OC(F)(F)F)c(Nc3ncc4c(n3)-c3c(c(C(N)=O)nn3CCO)CC4)c2)CC1 [ONVANSERTIB]
- IC50 [1]: > 10 µM
- IC50 [2]: > 10 µM
- IC50 [3]: > 10 µM
- IC50 [4]: > 10 µM
- Activity (Mus musculus [5]): Non-toxic
- Activity (Mus musculus [6]): Non-toxic
- IC50 [7]: > 10 µM
- IC50 [8]: > 10 µM
- IC50 (Focal adhesion kinase 1): > 10 µM
- IC50 [9]: > 10 µM
- IC50 [10]: > 10 µM
- IC50 [11]: > 10 µM
- IC50 [12]: > 10 µM
- IC50 [13]: > 10 µM
- IC50 [14]: > 10 µM
- IC50 [15]: > 10 µM
- IC50 [16]: > 10 µM
- IC50 [17]: > 10 µM
- IC50 [18]: > 10 µM
- inhibition in vivo at 60 mg/kg (HCT-116 [19]): 89%
- IC50 [20]: 0.826 µM
- IC50 (Activated CDC42 kinase 1): > 10 µM
- IC50 [21]: > 10 µM
- IC50 [22]: > 10 µM
- IC50 [23]: > 10 µM
- Papp (Caco-2): permeable
- inhibition in vivo at 45 mg/kg (HCT-116 [24]): 83%
- Activity (Mus musculus [25]): 16%
- Activity (Mus musculus [26]): 18%
